Results: paper PMC12947280, “An Antifungal with a Novel Mechanism of Action Discovered via Resistance Gene-Guided Genome Mining” (ACS Central Science, 2026)
Where two headings read alike, the source gives them in different places.

Legend:
[1] = target: C. albicans ALS (Candida albicans, UniProt A0A1D8PJF9); assay: ALS biochemical assay (CaALS)
[2] = target: T1, S. cerevisiae ALS wild type (Saccharomyces cerevisiae, UniProt P07342); assay: ALS biochemical assay (ScALS), wild type
T1 construct: made in house; host or cells: E. coli BL21 (DE3), pET28a-ScILV2
T1 sequence (P07342 58-687): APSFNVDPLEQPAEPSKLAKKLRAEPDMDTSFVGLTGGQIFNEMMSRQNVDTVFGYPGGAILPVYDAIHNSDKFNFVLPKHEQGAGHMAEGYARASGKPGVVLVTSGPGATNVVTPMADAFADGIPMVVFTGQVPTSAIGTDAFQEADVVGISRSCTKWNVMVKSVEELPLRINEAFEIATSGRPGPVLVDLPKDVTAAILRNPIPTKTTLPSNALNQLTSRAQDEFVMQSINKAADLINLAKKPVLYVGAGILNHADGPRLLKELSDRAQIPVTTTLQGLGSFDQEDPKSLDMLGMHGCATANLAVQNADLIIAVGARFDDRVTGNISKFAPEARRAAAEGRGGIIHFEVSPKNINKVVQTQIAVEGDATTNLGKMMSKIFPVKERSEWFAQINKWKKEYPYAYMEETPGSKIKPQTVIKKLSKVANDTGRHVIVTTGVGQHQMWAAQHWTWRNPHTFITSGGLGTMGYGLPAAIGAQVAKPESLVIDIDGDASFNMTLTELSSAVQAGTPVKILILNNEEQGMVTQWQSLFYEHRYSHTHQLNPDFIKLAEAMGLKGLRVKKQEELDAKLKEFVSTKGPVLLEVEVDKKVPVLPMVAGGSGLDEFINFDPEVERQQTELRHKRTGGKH
Protocol: (§1) ALS biochemical assay (ScALS)
(§2) Saccharomyces cerevisiae acetohydroxyacid synthase (ScALS) lacking the N-terminal […]
(§3) Escherichia coli as an N-terminally His6-tagged protein. Assays (50 µL final volume) contained […]
(§4) adenine dinucleotide, 10 mM MgCl2, 1 mM DTT, 1% DMSO (± inhibitor) in 500 mM K2HPO4 buffer at pH 7.5. Following a 30 min pre-incubation of the enzyme and inhibitor in the reaction mixture at room temperature, reactions were initiated with the addition of pyruvate. ScALS assays were carried out at 30 °C for 60 min. The reaction was quenched with the addition of 5 µL of 10% H2SO4 (v/v in deionized water). Reactions were incubated at 60 °C at 800 rpm in an […]
(§5) to acetoin. Subsequently, the concentration of acetoin was determined by the addition of 7.5 µL 6 M NaOH, 25 µL 0.5% creatine (w/v in deionized water), and 25 µL 4% 1-naphthol (w/v in 2.5 M NaOH). This mixture was incubated at 60 °C at 800 rpm in an incubating microplate shaker for […]
(§6) 40 µL of this reaction mixture was transferred to a half area UV-star 96-well plate (Grenier) and the absorbance at 525 nm was measured on a Spark multimode plate reader (Tecan). The percent inhibition was calculated by the comparison of the signal to DMSO (0% […]
(§7) IC50 values were calculated from the dose response curves using Prism 9 (four parameter, variable slope). […]
(§8) Expression and purification of ScALS
(§9) S. cerevisiae ILV2 (the gene or ScALS) lacking the N-terminal mitochondrial-localization tag

[3] = target: A. fumigatus ALS (Aspergillus fumigatus, UniProt Q4WXQ3); assay: ALS biochemical assay (AfALS)
Chain of A. fumigatus ALS (Q4WXQ3 entry or part of it): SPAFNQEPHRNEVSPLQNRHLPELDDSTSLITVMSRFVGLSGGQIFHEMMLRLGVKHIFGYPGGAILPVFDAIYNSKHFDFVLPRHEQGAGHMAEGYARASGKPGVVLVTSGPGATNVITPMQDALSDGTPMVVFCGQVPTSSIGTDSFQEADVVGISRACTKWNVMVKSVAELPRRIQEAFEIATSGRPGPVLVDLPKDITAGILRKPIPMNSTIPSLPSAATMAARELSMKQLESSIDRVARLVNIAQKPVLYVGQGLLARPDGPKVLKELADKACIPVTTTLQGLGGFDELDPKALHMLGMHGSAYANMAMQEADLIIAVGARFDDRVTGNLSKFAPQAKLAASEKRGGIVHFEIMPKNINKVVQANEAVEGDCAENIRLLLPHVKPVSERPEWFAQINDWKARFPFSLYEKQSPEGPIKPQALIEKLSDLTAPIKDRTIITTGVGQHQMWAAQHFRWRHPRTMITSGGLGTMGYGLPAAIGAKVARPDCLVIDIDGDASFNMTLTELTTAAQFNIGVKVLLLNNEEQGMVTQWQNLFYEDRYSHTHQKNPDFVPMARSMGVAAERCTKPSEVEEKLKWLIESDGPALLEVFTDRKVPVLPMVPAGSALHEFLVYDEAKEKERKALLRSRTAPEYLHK
Protocol: ALS biochemical assay (AfALS)
Aspergillus fumigatus acetohydroxyacid synthase (AfILV2) lacking the N-terminal mitochondrial-targeting sequence (amino acids 112-752) was overproduced and isolated from E. coli as an N-terminally His6-tagged protein. Assays (50 µL final volume) contained 200 nM His6-AfALS, 8 mM pyruvate, 1 mM thiamine pyrophosphate, and 10 µM flavin adenine dinucleotide, 10 mM MgCl2, 1 mM DTT, 1% DMSO (± inhibitor) in 200 mM KH2PO4 buffer at pH
7.5. Following a 30 min pre-incubation of the enzyme and inhibitor in the reaction mixture at room temperature, reactions were initiated with the addition of pyruvate. AfALS assays were carried out at 30 °C for 120 min. The reaction was quenched with the addition of 5 µL of 10% H2SO4 (v/v in deionized water). Reactions were incubated at 60 °C at incubating microplate shaker for 15 min to convert the product of the ALS reaction, acetolactate, to acetoin.
Subsequently, the concentration of acetoin was determined by the addition of 7.5 µL 6 M NaOH, 25 µL 0.5% creatine (w/v in deionized water), and 25 µL 4% 1-naphthol (w/v in 2.5 M NaOH).
This mixture was incubated at 60 °C in an incubating microplate shaker for 15 min. 40 µL of this reaction mixture was transferred to a half area UV-star 96-well plate (Grenier) and the absorbance at 525 nm was measured on a Spark multimode plate reader (Tecan). The percent inhibition was calculated by the comparison of the signal to DMSO (0% inhibition) and no enzyme (100% inhibition) controls. IC50 values were calculated from the dose response curves using Prism 9 (four parameter, variable slope). […]
(amino acids 58-687) was codon optimized for expression in E. coli and synthesized by […]

[4] = system: A. fumigatus; assay: Inhibition of A. fumigatus growth; format: cell-based
[5] = target: T2, S. cerevisiae ALS P192S (Saccharomyces cerevisiae, UniProt P07342, P192S); assay: biochemical; format: biochemical
T2 construct: His6 (followed by a TEV protease site, pET28a) (N); made in house; host or cells: E. coli (inferred from the ScALS method)
T2 sequence (P07342 58-687 P192S): as the sequence (P07342 58-687) above, with P135S counted along it
Protocol: as §1, §2, §3, §4, §5, §6, §7, §8, §9

[6] = Aspergillus fumigatus; read-out: A. fumigatus growth inhibition EC50 (Figure 4A)
[7] = Aspergillus fumigatus; read-out: A. fumigatus growth inhibition IC50

Chain of C. albicans ALS (A0A1D8PJF9 entry or part of it): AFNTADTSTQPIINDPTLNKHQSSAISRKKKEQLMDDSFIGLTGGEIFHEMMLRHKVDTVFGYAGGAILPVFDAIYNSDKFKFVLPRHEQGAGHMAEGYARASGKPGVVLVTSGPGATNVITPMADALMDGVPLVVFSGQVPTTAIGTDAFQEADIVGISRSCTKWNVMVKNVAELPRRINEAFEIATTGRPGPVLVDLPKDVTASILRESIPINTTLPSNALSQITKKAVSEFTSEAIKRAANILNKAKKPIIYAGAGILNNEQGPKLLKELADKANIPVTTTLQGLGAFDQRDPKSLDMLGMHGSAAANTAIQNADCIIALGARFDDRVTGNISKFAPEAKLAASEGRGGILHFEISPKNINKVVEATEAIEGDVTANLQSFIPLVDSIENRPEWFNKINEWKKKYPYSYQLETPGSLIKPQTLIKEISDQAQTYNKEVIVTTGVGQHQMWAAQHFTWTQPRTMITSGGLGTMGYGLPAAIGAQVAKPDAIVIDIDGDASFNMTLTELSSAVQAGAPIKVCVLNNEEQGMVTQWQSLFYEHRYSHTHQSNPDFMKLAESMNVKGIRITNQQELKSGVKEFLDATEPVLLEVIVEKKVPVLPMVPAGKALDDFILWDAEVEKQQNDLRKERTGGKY

| SMILES | IC50 [1] [nM] | IC50 [3] [nM] | EC50 [4, 6] [nM] | IC50 [4, 7] [nM] | other results |
| --- | --- | --- | --- | --- | --- |
| COc1cnc(OC)n2nc(NS(=O)(=O)c3c(OCC(F)F)cccc3C(F)(F)F)nc12 [compound 3, penoxsulam] | 3.4 ± 0.6 | 0.5 ± 0.2 | 23000 ± 7000 | 25000 | IC50 [2]: 0.4 ± 0.2 nM; IC50 [5]: 150 ± 30 nM |
| CCOC(=O)c1ccccc1S(=O)(=O)NC(=O)Nc1nc(Cl)cc(OC)n1 [compound 5, chlormuron ethyl] | – | 11 ± 3 | – | – | IC50 ([1]; recombinant CaALS, read-out: ALS IC50 C. albicans): 27 ± 5 nM; EC50 ([4]; Aspergillus fumigatus, read-out: A. fumigatus growth inhibition EC50 (Figure 4A)): 80000 ± 30000 nM; IC50 ([4]; Aspergillus fumigatus, read-out: A. fumigatus growth inhibition IC50): 90000 nM |
| C[C@@H](c1ncncc1F)[C@](O)(Cn1cncn1)c1ccc(F)cc1F [Voriconazole, voriconazole] | – | – | 500 ± 200 | 500 | – |
| COC(=O)c1ccccc1CS(=O)(=O)NC(=O)Nc1nc(OC)cc(OC)n1 [compound 2, bensulfuron methyl] | 30 ± 4 | 100 ± 20 | 57000 ± 20000 | 200000 | – |
| COc1cc(OC)nc(Oc2cccc(Oc3nc(OC)cc(OC)n3)c2C(=O)O)n1 [compound 4, bispyribac, reference compound] | – | – | – | – | IC50 ([2]; recombinant ScALS, read-out: S. cerevisiae ALS IC50 Wild type): 600 ± 100 nM |
